Here are results for 3 molecules from US20120245078A1, “MEANS AND METHODS FOR TREATING ISCHEMIC CONDITIONS” (priority 2009, published 2012).

Assay [1] concerns traumatic brain injury (CCI). The experiment in a line: Controlled cortical impact (CCI) traumatic brain injury model. In kind it is in vivo, mouse. As to conditions: mice, 24 h after CCI; given 30 min after CCI; bortezomib 0.2 mg/kg, dexamethasone 10 mg/kg; scale 0 to 10. The protocol:
As is known in the art, the neurological severity score is a measure of neurological impairment and is quantified on a scale from 0 (no impairment) to 10 (maximum impairment). When determining the neurological severity score, primarily the motoric activity is assessed (walking on a bar, false steps, search or foraging, respectively, behaviour and the like).

Assay [2] concerns focal cerebral ischemia (tMCAO). As to conditions: mice, 24 h after 60 min tMCAO; same doses; untreated control 48.3±16.7 or 56.6±10.0. The protocol: The intraluminal suture was left in situ for 60 minutes. Then animals were re-anesthetized and the occluding monofilament was withdrawn to allow reperfusion. […] Control mice (n=10) received 0.9% NaCl solution.
Control mice (n=10) received 0.9% NaCl solution.

The next assay has as its system claudin-5 protein. Put plainly: Western blot and densitometry, claudin-5 protein in cEND cells. In kind it is cell-based, mouse. As to conditions: GR-K426A-transfected cEND cells, O2/glucose deprivation, presence of dexamethasone (K426A O2/glu depr+dex). The protocol:
(C)-(D) The influence of O2/glucose-deprivation on the tight junction proteins occludin and claudin-5 could be shown by Western Blot: for this, cells were seeded on plastic cell culture flasks coated with collagen IV, treated as indicated and subjected to SDS-gel electrophoresis and Western blotting. A four-hour exposure to O2/glucose-deprivation caused a significant (P<0.05) decrease in occludin protein to 82±3% as compared to the untreated control. […]. Comparably, O2/glucose-deprivation caused a significant (P<0.001) decrease in claudin-5 protein to 61±4% as compared to the untreated control. […].

For the next assay, the system named is GR protein. The experiment in a line: Western blot and densitometry, GR protein levels in cEND cells. The format is cell-based, mouse. As to conditions: normoxia, 100 nM dexamethasone 24 h (normox+dex). The protocol: (A) GR protein levels after O2/glucose-deprivation.
(§1) Electrophoresis and immunoblotting, quantitative real-time RT-PCR, transendothelial electrical resistance measurements, transfection and luciferase assay were performed following standard procedures.
Background: Immunoblotting shows a protein as a band on a membrane.

For another assay, the system named is occludin protein. Put plainly: Western blot and densitometry, occludin protein in cEND cells. In kind it is cell-based, mouse. As to conditions: for occludin protein, of control: GR-K426A-transfected cEND cells, after O2/glucose deprivation. The protocol:
(C)-(D) The influence of O2/glucose-deprivation on the tight junction proteins occludin and claudin-5 could be shown by Western Blot: for this, cells were seeded on plastic cell culture flasks coated with collagen IV, treated as indicated and subjected to SDS-gel electrophoresis and Western blotting. A four-hour exposure to O2/glucose-deprivation caused a significant (P<0.05) decrease in occludin protein to 82±3% as compared to the untreated control. […]. Comparably, O2/glucose-deprivation caused a significant (P<0.001) decrease in claudin-5 protein to 61±4% as compared to the untreated control. […]. (C) Effects of proteasomal inhibition on occludin protein levels were examined by western blot analysis and densitometric analysis.

A further assay concerns claudin-5. The experiment in a line: Real time RT-PCR, claudin-5 gene expression in cEND cells. As to conditions: introduction of GR-K426A. In kind it is cell-based, mouse. The protocol: (§2) Normox control (black bars), normox+dex (white bars), O2/glu depr (light grey bars), O2/glu depr+dex (dark grey bars).
as §1
(§3) At first, expression levels of genes encoding the tight junction proteins occludin, claudins-3, -5, -12 and the adherens junction protein, VE-cadherin, were assessed by real time RT-PCR (FIG. 2B).
(In general: In qPCR the cycle at which signal appears reflects the starting amount.)

The next assay deals with VE-cadherin. The experiment in a line: Real time RT-PCR, VE-cadherin gene expression in cEND cells. As to conditions: introduction of GR-K426A. In kind it is cell-based, mouse. As to the method:
as §2, §1, §3

A further assay relates to cEND monolayers. Put plainly: Transendothelial electrical resistance (TER) of cEND monolayers, normoxia or O2/glucose deprivation. The format is cell-based, mouse. As to conditions: GR-K426A-transfected cEND cells, after O2/glucose deprivation, without dexamethasone (K426A O2/glu depr). As to the method:
Growth medium (10% FCS) was changed after 5 days in culture to differentiation medium ([…], ±additions) and analysis of the TER was performed after O2/glucose-deprivation as indicated. […] Hek293 cells were maintained in DMEM, 10% FCS. […] We performed cell viability assays following standard procedures.
as §1

With `CC(C)C[C@@H](NC(=O)[C@@H](Cc1ccccc1)NC(=O)c1cnccn1)B(O)O` [bortezomib, [(1S)-3-methyl-1-[[(2R)-3-phenyl-2-(pyrazine-2-carbonylamino)propanoyl]amino]butyl]boronic acid], the neurological severity score entry in assay [1] is reported as “does not lead to any statistically significant improvement”. In addition, in assay [2], the “volume of Evan's blue extravasation (edema volume)” value was “no influence”.
With `C[C@@H]1C[C@H]2[C@@H]3CCC4=CC(=O)C=C[C@]4(C)[C@@]3(F)[C@@H](O)C[C@]2(C)[C@@]1(O)C(=O)CO` [dexamethasone], the claudin-5 protein level in the assay with claudin-5 protein worked out at 44±11%. For the same molecule, the “GR protein, of untreated cells” value with GR protein is 66±2%. The “occludin protein, of control” value in the assay with occludin protein (dexamethasone (K426A O2/glu depr+dex)) is on record as 122±5%. In addition, the “occludin protein content, of control” value in the assay on occludin protein (normoxia, dexamethasone) worked out at 120±7%.

B1: GR-K426A: mutant murine glucocorticoid receptor, point mutation at lysine-426, resistant to proteasomal degradation, transfected into cEND cells (SEQ ID NOs: 3 and 4) (protein)
chain: MDSKESLAPPGRDEVPSSLLGRGRGSVMDLYKTLRGGATVKVSASSPSVAAASQADSKQQRILLDFSKGSASNAQQQQQQQQPQPDLSKAVSLSMGLYMGETETKVMGNDLGYPQQGQLGLSSGETDFRLLEESIANLNRSTSRPENPKSSTPAAGCATPTEKEFPQTHSDPSSEQQNRKSQPGTNGGSVKLYTTDQSTFDILQDLEFSAGSPGKETNESPWRSDLLIDENLLSPLAGEDDPFLLEGDVNEDCKPLILPDTKPKIQDTGDTILSSPSSVALPQVKTEKDDFIELCTPGVIKQEKLGPVYCQASFSGTNIIGNKMSAISVHGVSTSGGQMYHYDMNTASLSQQQDQKPVFNVIPPIPVGSENWNRCQGSGEDNLTSLGAMNFAGRSVFSNGYSSPGMRPDVSSPPSSSSTATGPPPALCLVCSDEASVCHYGVLTCGSCKVFFKRAVEGQHNYLCAGRNDCIIDKIRRKNCPACRYRKCLQAGMNLEARKTKKKIKGIQQATAGVSQDTSENANKTIVPAALPQLTPTLVSLLEVIEPEVLYAGYDSSVPDSAWRIMTTLNMLGGRQVIAAVKWAKAIPGFRNLHLDDQMTLLQYSWMFLMAFALGWRSYRQASGNLLCFAPDLIINEQRMTLPCMYDQCKHMLFISTELQRLQVSYEEYLCMKTLLLLSSVPKEGLKSQELFDEIRMTYIKELGKAIVKREGNSSQNWQRFYQLTKLLDSMHDVVENLLSYCFQTFLDKSMSIEFPEMLAEIITNQIPKYSNGNIKKLLFHQK
modifications: expressed in transfected cEND cells; mus musculus
Consider B1, for which, in the assay on claudin-5, the “claudin-5 gene expression level” value is given as “not influenced”. For the same molecule, the “VE-cadherin gene expression level” value with VE-cadherin was “not influenced”. The TER in the assay on cEND monolayers is 239+58 Ωcm^2. For the same molecule, the “occludin protein, of control” value with occludin protein (without dexamethasone (K426A O2/glu depr)) is 58±7%.
